Data published in the CheMixHub ionic liquid set.

Test: xn = mol fraction of the nth substance listed

CCCC[n+]1ccn(C)c1.[Cl-] + CCCC[n+]1ccn(C)c1.F[B-](F)(F)F
Settings	viscosity [mPa·s]
293 K, 101 kPa, x1 = 0.1015	201

CCCCCCCCn1cc[n+](C)c1.[Br-] + [Cl-].[Li+] + O
298.15 K, 100 kPa
Settings	viscosity [mPa·s]
x2 = 0, x3 = 0.9487	7.96
x2 = 0.00845, x3 = 0.9403	7.94
x2 = 0.0171, x3 = 0.9316	8.68
x2 = 0.02497, x3 = 0.9237	10.09
x2 = 0.03315, x3 = 0.9155	10.9
x2 = 0.04088, x3 = 0.9078	12.6

CCCCCCCCn1cc[n+](C)c1.[Br-] + O + CCCCCCCCn1cc[n+](C)c1.F[B-](F)(F)F
298.15 K, 101 kPa
Settings	electrical conductivity [S/m]
x1 = 0.0002342, x3 = 5.406e-05	0.15
x1 = 0.001691, x3 = 0.0003242	0.8
x1 = 0.002265, x3 = 0.0004503	0.99
x1 = 0.002803, x3 = 0.0005403	1.11
x1 = 0.00343, x3 = 0.0006663	1.24
x1 = 0.004413, x3 = 0.0008642	1.37
x1 = 0.004913, x3 = 0.0009541	1.45

CCCCCCCCCCCCCCCC[n+]1ccccc1.O=C([O-])c1ccccc1O + O
electrical conductivity [S/m], 101 kPa
Settings	293.15 K	298.15 K	303.15 K	308.15 K	313.15 K
x1 = 7.2e-07	0.00046	0.000513	0.000569	0.000627	0.000668
x1 = 1.44e-06	0.000708	0.000794	0.000883	0.000973	0.00122
x1 = 1.98e-06	0.000945	0.00105	0.00117	0.00129	–
x1 = 2.34e-06	0.00114	0.00128	0.00144	0.00159	0.00177
x1 = 2.88e-06	0.00129	0.00148	0.00168	0.00186	–
x1 = 3.24e-06	–	–	–	–	0.0023
x1 = 3.42e-06	0.00142	0.00163	0.00186	0.0021	–
x1 = 3.96e-06	0.00156	0.00178	0.00202	0.0023	0.00268
x1 = 4.32e-06	0.00167	0.00191	0.00217	0.00247	–
x1 = 4.69e-06	–	–	0.00232	0.00263	0.003
x1 = 4.87e-06	0.00181	0.00205	–	–	–
x1 = 5.23e-06	0.00187	0.00217	0.00247	0.0028	–
x1 = 5.41e-06	–	–	–	–	0.00324
x1 = 5.59e-06	0.00204	0.00231	0.00261	0.00294	–
x1 = 5.95e-06	0.00212	0.00242	0.00273	0.00309	0.00348
x1 = 6.31e-06	0.00224	0.00254	0.00285	0.00321	–
x1 = 6.49e-06	0.00231	0.00263	0.00296	0.00333	0.00375
x1 = 6.85e-06	0.00243	0.00274	0.00307	0.00345	–
x1 = 7.03e-06	–	–	–	–	0.00396
x1 = 7.21e-06	0.00251	0.00283	0.00319	0.00358	–
x1 = 7.39e-06	–	–	–	–	0.00412
x1 = 7.75e-06	–	–	–	–	0.00431
x1 = 8.11e-06	–	–	–	–	0.00447
x1 = 8.65e-06	–	–	–	–	0.00464

CC(C)O + CCCCCC[n+]1ccn(C)c1.O=S(=O)([N-]S(=O)(=O)C(F)(F)F)C(F)(F)F
100 kPa, x1 = 1
Settings	viscosity [mPa·s]
293.15 K	2.42
298.15 K	2.05
303.15 K	1.73
308.15 K	1.49
313.15 K	1.34

O=S(=O)([N-]S(=O)(=O)C(F)(F)F)C(F)(F)F.[Na+] + O=S(=O)([N-]S(=O)(=O)C(F)(F)F)C(F)(F)F.[Li+]
100 kPa, frequency 1 MHz, x2 = 0.67
Settings	electrical conductivity [S/m]
473.6 K	0.114
483.1 K	0.156
492.1 K	0.205
502.4 K	0.269
512.5 K	0.342
523.2 K	0.435
531.5 K	0.533
543.3 K	0.635
552 K	0.753
561.2 K	0.91
571 K	1.02

100 kPa, x2 = 0.67
Settings	viscosity [mPa·s]
473.9 K	411
483.1 K	267
492.6 K	203
502.5 K	146
512.8 K	106
523.6 K	78.1
531.9 K	60.7
543.5 K	46.8
552.5 K	36.2
561.8 K	29.1

CCCCO + CCCCCCCCCCCC[N+](C)(C)Cc1ccccc1.O=S(=O)([N-]S(=O)(=O)C(F)(F)F)C(F)(F)F
101 kPa, x2 = 0
Settings	viscosity [mPa·s]
298.15 K	2.52
308.15 K	1.98
313.15 K	1.75
343.15 K	0.92
348.15 K	0.845
